The values below come from patent US10717733B2, “Haloallylamine indole and azaindole derivative inhibitors of lysyl oxidases and uses thereof” (PHARMAXIS LTD., priority 2016, dated 2020).

Experiment [1] has as its system Streptozotocin (STZ)-induced diabetic nephropathy. Briefly: Streptozotocin induced diabetic nephropathy (kidney fibrosis) model. Particulars: diabetic eNOS knockout mice, 24 weeks, 0.1-100 mg/Kg. It is filed as in vivo, mouse. The method, then: Streptozotocin (STZ)-induced diabetic nephropathy is commonly used for creating rodent models of type 1 diabetes which develop renal injury, due to pancreatic cell damage with similarities to human diabetic nephropathy.
Diabetes is induced in eNOS knockout mice on C57BL/6 background by intraperitoneal STZ injection (55 mg/kg in 0.1 M citrate buffer) in mice of 6-9 weeks of age (see Huang C et al, Blockade of KCa3.1 ameliorates renal fibrosis through a TGF-bl/Smad pathway in diabetic mice. Diabetes, 2013 62(8):2923-2934).
Blood sugar level (BSL) is determined by tail vein blood. Mice with BSL>16 mmol/L two weeks post STZ injection are considered diabetic. Treatment with Compound 12 is carried out for 24 weeks from diagnosis of diabetes at a dose of 0.1-100 mg/Kg.

Experiment [2] deals with myocardial infarction induced fibrosis. Briefly: Myocardial infarction induced fibrosis (carotic ligation) model. It is filed as in vivo, mouse. Particulars: mice, 0.1-100 mg/Kg once a day oral gavage, FIG. 5. From the text:
Carotic ligation is a widely accepted experimental model to induce cardiac fibrosis and to determine the anti-fibrotic activity of therapeutic agents.
In mice, the chest is opened via a left thoracotomy. The left coronary artery is identified visually using a stereo microscope, and a 7-0 suture is placed around the artery 1-2 mm below the left auricle. Permanent occlusion of the left coronary artery resulted from its ligation with the suture. Myocardial ischemia was confirmed by pallor in heart color and ST-segment elevation. (see Parajuli et al. Phosphatase PTEN is critically involved in post-myocardial infarction remodeling through the Akt/interleukin-10 signaling pathway Basic Res Cardiol (2012) 107:248).
Mice were subjected to sham or carotic ligation surgery. At 24 hrs post-surgery, echocardiography was performed on the mice. Mice were treated with compound 25 0.1-100 mg/Kg once a day for 21 (7 days after carotic ligation) or 28 days or saline as vehicle controls by oral gavage. At the end of the experiment, echocardiography was repeated to assess left ventricular function and remodeling. Then mice were euthanized for heart collection. Each heart was photographed and fixed with 10% formalin. Hearts were sectioned for Masson's trichrome stain to measure fibrosis (See FIG. 5).

Experiment [3] has as its system CCl4 induced liver fibrosis. The experiment can be described thus: CCl4 induced liver fibrosis model. Type of experiment: in vivo, rat. Particulars: 0.1-100 mg/Kg. The method, then:
An analysis of the use of LOXL2 inhibitors to treat inflammatory/fibrotic diseases is performed through the use of a CCl4 induced liver fibrosis model. Liver injury is frequently followed by complete parenchymal regeneration due to regenerative potency of hepatocytes. Continuous liver injury due to the administration of CCl4 leads to extracellular matrix accumulation, accompanied by recurrent hepatocyte necrosis, inflammation, and regenerative processes, causing liver fibrosis and consequently liver cirrhosis (see Natsume, M., et al., Attenuated liver fibrosis and depressed serum albumin levels in carbon tetrachloride-treated IL-6-deficient mice. J. Leukoc. Biol., 1999, 66, 601-608 also See Yao, Q, Y., et al. Inhibition by curcumin of multiple sites of the transforming growth factor-beta1 signalling pathway ameliorates the progression of liver fibrosis induced by carbon tetrachloride in rats. BMC Complement Altern Med. 2012 Sep. 16; 12(1):156.)
Rats are administered orally with CCl4 at a concentration of 0.25 μL/g in olive oil, 3 times per week for 6 weeks. Compound 25 is given 0.1-100 mg/Kg throughout the period of the experimental procedure or only 3 weeks after CCl4 administration and then throughout the entire study. […]

Counter-ions that a name gives are not always drawn.

Regarding `CCOC(=O)c1ccc2c(c1)c(-c1cccc(S(=O)(=O)N(C)C)c1)c(C)n2C/C(F)=C/CN` [Compound 12, (Z)-ethyl 1-(4-amino-2-fluorobut-2-en-1-yl)-3-(3-(N,N-dimethylsulfamoyl)phenyl)-2-methyl-1H-indole-5-carboxylate], the “kidney function by albumin/creatinine ratio quantification” value in experiment [1] is given as “significant improvement”. The “reduction of fibrosis by Masson's Trichrome staining (collagen expression and glomerular damage)” value in experiment [1] (vs vehicle-treated group) is “up to 50%”.

As for `Cc1c(-c2cccc(S(=O)(=O)N(C)C)c2)c2ncccc2n1C/C(F)=C/CN` [Compound 25, (Z)-3-(1-(4-amino-2-fluorobut-2-en-1-yl)-2-methyl-1H-pyrrolo[3,2-b]pyridin-3-yl)-N,N-dimethylbenzenesulfonamide Dihydrochloride], the “fibrosis after carotic ligation (Masson's trichrome stain)” value in experiment [2] is “reduce fibrosis”. Also, in experiment [3] (CCl4 model, statistically significant), the “inhibition of liver collagen by hydroxyproline analysis” value is on record as over 30%. Also, in experiment [3] (rats, CCl4 orally 6 weeks, vs vehicle-treated group), the “reduction of liver fibrosis by liver sirius red staining with quantification” value is listed as “up to 50%”.
